Measured values taken from US20060040957A1, “BICYCLIC PYRIMIDINE MATRIX METALLOPROTEINASE INHIBITORS” (priority 2001, published 2006).
Where two headings read alike, the source gives them in different places.

Experiments:
Format in all cases: biochemical
[1] = molecular target: MMP-13CD (catalytic domain of collagenase 3) (Homo sapiens, UniProt P45452); test: Thiopeptolide substrate hydrolysis assay, MMP-13CD; conditions: thiopeptolide substrate, HEPES pH 7.0, 22° C.
From the text: (§1) Thiopeptolide substrates show virtually no decomposition or hydrolysis at or below neutral pH in the absence of a matrix metalloproteinase enzyme.

[2] = molecular target: MMP-14CD (catalytic domain of MMP-14) (Homo sapiens, UniProt P50281); test: Thiopeptolide substrate hydrolysis assay, MMP-14CD; conditions: HEPES pH 7.0, 22° C., read-out: IC50 (μM) Versus Certain MMPs: MMP-14 CD
From the text: (§2) The invention compounds of Formula I have been evaluated in standard assays for their ability to inhibit the catalytic activity of various MMP enzymes.
as §1
(§3) Several representative compounds have been evaluated for their ability to inhibit various matrix metalloproteinase enzymes.

[3] = molecular target: T1, MMP-7FL (full length matrilysin) (Homo sapiens, UniProt P09237); test: Thiopeptolide substrate hydrolysis assay, MMP-7FL; conditions: HEPES pH 7.0, 22° C., read-out: IC50 (μM) Versus Certain MMPs: MMP-07 FL
T1 sequence (P09237 95-267): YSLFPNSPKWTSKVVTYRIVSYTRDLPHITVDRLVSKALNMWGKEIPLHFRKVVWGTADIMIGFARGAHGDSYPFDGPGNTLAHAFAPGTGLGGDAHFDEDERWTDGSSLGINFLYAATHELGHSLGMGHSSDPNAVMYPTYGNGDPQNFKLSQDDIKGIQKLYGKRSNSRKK
From the text: as §2, §1, §3

[4] = molecular target: T2, MMP-1FL (full length interstitial collagenase) (Homo sapiens, UniProt P03956); test: Thiopeptolide substrate hydrolysis assay, MMP-1FL; conditions: HEPES pH 7.0, 22° C., read-out: IC50 (μM) Versus Certain MMPs: MMP-01 FL
T2 sequence (P03956 100-469): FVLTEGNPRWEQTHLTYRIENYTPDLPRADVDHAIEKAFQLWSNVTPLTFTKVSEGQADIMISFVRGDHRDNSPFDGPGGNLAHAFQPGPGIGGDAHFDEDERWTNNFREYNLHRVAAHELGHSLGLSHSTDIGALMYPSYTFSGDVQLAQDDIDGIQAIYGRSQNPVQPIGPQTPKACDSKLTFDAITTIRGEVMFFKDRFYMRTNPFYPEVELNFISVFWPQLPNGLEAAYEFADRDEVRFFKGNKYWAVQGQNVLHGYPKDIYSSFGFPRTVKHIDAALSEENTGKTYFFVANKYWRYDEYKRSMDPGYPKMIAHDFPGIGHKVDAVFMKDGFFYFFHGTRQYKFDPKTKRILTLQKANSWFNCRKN
From the text: as §2, §1, §3

[5] = molecular target: T3, MMP-2FL (full length Gelatinase A) (Homo sapiens, UniProt P08253); test: Thiopeptolide substrate hydrolysis assay, MMP-2FL; conditions: HEPES pH 7.0, 22° C., read-out: IC50 (μM) Versus Certain MMPs: MMP-02 FL
T3 sequence (P08253 110-660): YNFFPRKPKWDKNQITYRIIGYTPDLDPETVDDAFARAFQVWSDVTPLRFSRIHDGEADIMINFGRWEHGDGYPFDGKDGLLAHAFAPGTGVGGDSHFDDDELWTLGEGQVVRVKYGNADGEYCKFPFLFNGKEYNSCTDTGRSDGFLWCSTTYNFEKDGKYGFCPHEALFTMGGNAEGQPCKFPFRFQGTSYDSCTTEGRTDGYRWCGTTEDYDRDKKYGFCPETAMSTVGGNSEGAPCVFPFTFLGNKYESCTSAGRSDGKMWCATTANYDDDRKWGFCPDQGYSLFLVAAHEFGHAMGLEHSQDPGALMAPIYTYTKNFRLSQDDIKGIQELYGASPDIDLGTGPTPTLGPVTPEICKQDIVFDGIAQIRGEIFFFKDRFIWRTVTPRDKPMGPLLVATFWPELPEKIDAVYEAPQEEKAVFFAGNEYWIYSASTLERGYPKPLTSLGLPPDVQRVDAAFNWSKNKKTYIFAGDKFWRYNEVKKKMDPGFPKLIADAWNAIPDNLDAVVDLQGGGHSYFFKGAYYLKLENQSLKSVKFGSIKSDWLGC
From the text: as §2, §1, §3

[6] = molecular target: MMP-9FL (full length Gelatinase B) (Homo sapiens, UniProt P14780); test: Thiopeptolide substrate hydrolysis assay, MMP-9FL; conditions: HEPES pH 7.0, 22° C., read-out: IC50 (μM) Versus Certain MMPs: MMP-09 FL
Chain of MMP-9FL (full length Gelatinase B) (P14780 94-707, species assumed): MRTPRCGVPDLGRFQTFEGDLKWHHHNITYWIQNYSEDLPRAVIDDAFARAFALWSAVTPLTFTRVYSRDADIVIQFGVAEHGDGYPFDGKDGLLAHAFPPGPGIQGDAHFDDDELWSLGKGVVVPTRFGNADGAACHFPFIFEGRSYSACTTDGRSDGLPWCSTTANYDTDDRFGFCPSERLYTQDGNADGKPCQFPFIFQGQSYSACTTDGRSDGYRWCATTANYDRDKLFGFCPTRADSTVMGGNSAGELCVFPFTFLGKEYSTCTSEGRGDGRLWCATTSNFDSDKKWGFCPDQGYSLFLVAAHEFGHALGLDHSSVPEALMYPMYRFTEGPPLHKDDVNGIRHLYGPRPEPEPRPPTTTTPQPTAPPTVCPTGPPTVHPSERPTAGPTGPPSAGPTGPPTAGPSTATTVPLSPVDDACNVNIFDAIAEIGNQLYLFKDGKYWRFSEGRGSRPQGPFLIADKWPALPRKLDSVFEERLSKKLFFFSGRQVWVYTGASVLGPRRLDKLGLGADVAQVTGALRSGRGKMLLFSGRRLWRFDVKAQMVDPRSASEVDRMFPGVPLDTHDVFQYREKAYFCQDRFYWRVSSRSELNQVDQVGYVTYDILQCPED
From the text: as §2, §1, §3

[7] = molecular target: MMP-3CD (catalytic domain of stromelysin-1) (Homo sapiens, UniProt P08254); test: Thiopeptolide substrate hydrolysis assay, MMP-3CD; conditions: MES buffer pH 6.0, read-out: IC50 (μM) Versus Certain MMPs: MMP-03 CD
Chain of MMP-3CD (catalytic domain of stromelysin-1) (P08254 100-272 limits assumed): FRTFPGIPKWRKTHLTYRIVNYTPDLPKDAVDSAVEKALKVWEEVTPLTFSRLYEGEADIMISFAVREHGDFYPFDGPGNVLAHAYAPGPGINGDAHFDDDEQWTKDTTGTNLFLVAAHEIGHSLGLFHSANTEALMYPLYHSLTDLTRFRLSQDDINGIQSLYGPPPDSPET
Description: as §2, §1, §3
It should be appreciated that the assay buffer used with MMP-3CD was 50 mM N-morpholinoethane sulfonate (−MES=) at pH 6.0 rather than the HEPES buffer at pH 7.0 described above.

[8] = IC50 (μM) Versus Certain MMPs: MMP-13 CD
[9] = read-out: IC50 (μM) Versus Certain MMPs: MMP-13 CD

Compound | IC50 [1, 8] | IC50 [2] | IC50 [3] | IC50 [4] | IC50 [5] | IC50 [6] | IC50 [7] | IC50 [1, 9]
O=C(NCc1ccccc1)c1cn2c(=O)n(Cc3ccccc3)c(=O)cc2s1 [Example 4, 6-Benzyl-5,7-dioxo-6,7-dihydro-5H-thiazolo[3,2-c]pyrimidine-2-carboxylic acid benzylamide] | 0.572 µM | 47.5 µM | 65 µM | 81 µM | > 100 µM | 83.5 µM | 27 µM | 
O=c1cc2sc(C(O)CCc3ccccc3)cn2c(=O)n1Cc1ccccc1 (stereo not drawn) [Example 5, 6-Benzyl-2-(1-hydroxy-3-phenyl-propyl)-thiazolo[3,2-c]pyrimidine-5,7-dione] |  | > 100 µM | > 100 µM | > 100 µM | > 100 µM | > 100 µM | > 100 µM | 14.3 µM
O=C(Nc1ccc(-c2ccccc2)cc1)c1cn2c(=O)n(Cc3ccccc3)c(=O)cc2s1 [Example 6, 6-Benzyl-5,7-dioxo-6,7-dihydro-5H-thiazolo[3,2-c]pyrimidine-2-carboxylic acid biphenyl-4-ylamide] |  | 7.3 µM | 9.2 µM | > 30 µM | > 30 µM | > 30 µM | 3.5 µM | 23 µM
O=C(CCc1ccccc1)c1cn2c(=O)n(Cc3ccccc3)c(=O)cc2s1 [Example 8, 6-Benzyl-2-(3-phenyl-propionyl)-thiazolo[3,2-c]pyrimidine-5,7-dione] | 6.6 µM | 8.8 µM | > 30 µM | > 100 µM | > 100 µM | > 100 µM | 3.2 µM | 
Cc1c(C(=O)OCc2ccccc2)sc2cc(=O)n(Cc3ccccc3)c(=O)n12 [Example 19, 6-Benzyl-3-methyl-5,7-dioxo-6,7-dihydro-5H-thiazolo[3,2-c]pyrimidine-2-carboxylic acid benzyl ester] | 21 µM | > 30 µM | 8.8 µM | > 100 µM | > 100 µM | > 30 µM | > 100 µM | 
COc1cc(CNC(=O)c2cn3c(=O)n(Cc4ccccc4)c(=O)c(C)c3s2)ccn1 [Example 37] | 0.0175 µM | > 30 µM | > 30 µM | > 30 µM | > 30 µM | > 30 µM | 10 µM | 
